Laboratory results: ChEMBL document CHEMBL1201862, “PubChem BioAssay data set” (2004)
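Following 48 hours of exposure in 96-well plates, responses at five concentrations were used to interpolate endpoints linearly. GI50 is the concentration that inhibits growth by half.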 Calls of active or inactive are those of the source. Cut-off read from the data, not from the text of the source: active = GI50 up to about 1.1 µM and inactive = higher.

Key:
Test in all cases: NCI-60 cell line screen, 48 h
786-0 = tested on: 786-0
A498 = tested on: A498
A549 = tested on: A549
ACHN = tested on: ACHN
CAKI-1 = tested on: CAKI-1
CCRF-CEM = tested on: CCRF-CEM
COLO 205 = tested on: COLO 205
DLD-1 = tested on: DLD-1
DMS-114 = tested on: DMS-114
DMS-273 = tested on: DMS-273
EKVX = tested on: EKVX
HCC 2998 = tested on: HCC 2998
HCT-116 = tested on: HCT-116
HCT-15 = tested on: HCT-15
HL-60 = tested on: HL-60
HOP-18 = tested on: HOP-18
HOP-62 = tested on: HOP-62
HOP-92 = tested on: HOP-92
HT-29 = tested on: HT-29
IGROV-1 = tested on: IGROV-1
K562 = tested on: K562
KM-20L2 = tested on: KM-20L2
KM12 = tested on: KM12
LOX IMVI = tested on: LOX IMVI
LXFL 529 = tested on: LXFL 529
M14 = tested on: M14
M19-MEL = tested on: M19-MEL
MOLT-4 = tested on: MOLT-4
Malme-3M = tested on: Malme-3M
NCI-H226 = tested on: NCI-H226
NCI-H23 = tested on: NCI-H23
NCI-H460 = tested on: NCI-H460
NCI-H522 = tested on: NCI-H522
OVCAR-3 = tested on: OVCAR-3
OVCAR-4 = tested on: OVCAR-4
OVCAR-5 = tested on: OVCAR-5
OVCAR-8 = tested on: OVCAR-8
RXF 393 = tested on: RXF 393
RXF 631 = tested on: RXF 631
SF-268 = tested on: SF-268
SF-295 = tested on: SF-295
SF-539 = tested on: SF-539
SK-MEL-28 = tested on: SK-MEL-28
SK-MEL-2 = tested on: SK-MEL-2
SK-MEL-5 = tested on: SK-MEL-5
SK-OV-3 = tested on: SK-OV-3
SN12C = tested on: SN12C
SNB-19 = tested on: SNB-19
SNB-75 = tested on: SNB-75
SNB-78 = tested on: SNB-78
SR = tested on: SR
SW-620 = tested on: SW-620
TK-10 = tested on: TK-10
U-251 = tested on: U-251
UACC-257 = tested on: UACC-257
UACC-62 = tested on: UACC-62
UO-31 = tested on: UO-31
XF498 = tested on: XF498
RPMI-8226 = tested on: RPMI-8226

## CCC(C)C(N)C(=O)NC(CC(N)=O)C(=O)NC(CC(C)C)C(=O)NC(CCCCN)C(=O)NC(C)C(=O)NC(CC(C)C)C(=O)NC(C)C(=O)NC(C)C(=O)NC(CC(C)C)C(=O)NC(C)C(=O)NC(CCCCN)C(=O)NC(CCCCN)C(=O)NC(C(=O)NC(CC(C)C)C(N)=O)C(C)CC (centres undefined)
786-0
  GI50: 6.56 µM (inactive)
A498
  GI50: 17.9 µM (inactive)
A549
  GI50: 9.93 µM (inactive)
ACHN
  GI50: 14 µM (inactive)
CAKI-1
  GI50: 8.3 µM (inactive)
CCRF-CEM
  GI50: 6.46 µM (inactive)
COLO 205
  GI50: 16.1 µM (inactive)
DLD-1
  GI50: 10.4 µM (inactive)
DMS-114
  GI50: 14.1 µM (inactive)
DMS-273
  GI50: 7.43 µM (inactive)
EKVX
  GI50: 8.05 µM (inactive)
HCC 2998
  GI50: > 42.2 µM (inactive)
HCT-116
  GI50: 15.6 µM (inactive)
HCT-15
  GI50: 16.6 µM
HL-60
  GI50: 2.74 µM (inactive)
HOP-18
  GI50: 7.01 µM (inactive)
HOP-62
  GI50: 2.55 µM (inactive)
HOP-92
  GI50: 1.14 µM (inactive)
HT-29
  GI50: 19.5 µM (inactive)
IGROV-1
  GI50: 17.8 µM (inactive)
K562
  GI50: 14.7 µM (inactive)
KM-20L2
  GI50: 22.5 µM (inactive)
KM12
  GI50: 14.5 µM (inactive)
LOX IMVI
  GI50: 18.3 µM (inactive)
LXFL 529
  GI50: 14.9 µM (inactive)
M14
  GI50: 2.48 µM (inactive)
M19-MEL
  GI50: 10.1 µM (inactive)
MOLT-4
  GI50: 14.9 µM (inactive)
Malme-3M
  GI50: 5.98 µM (inactive)
NCI-H226
  GI50: 14.5 µM (inactive)
NCI-H23
  GI50: 14.7 µM (inactive)
NCI-H460
  GI50: 9.82 µM (inactive)
NCI-H522
  GI50: 16.7 µM (inactive)
OVCAR-3
  GI50: 8 µM (inactive)
OVCAR-4
  GI50: 15.3 µM (inactive)
OVCAR-5
  GI50: 14.6 µM (inactive)
OVCAR-8
  GI50: 17.5 µM (inactive)
RXF 393
  GI50: 8.61 µM (inactive)
RXF 631
  GI50: 7.82 µM (inactive)
SF-268
  GI50: 6.47 µM (inactive)
SF-295
  GI50: 19.8 µM (inactive)
SF-539
  GI50: 6.08 µM (inactive)
SK-MEL-28
  GI50: 8.59 µM (inactive)
SK-MEL-2
  GI50: 19.4 µM (inactive)
SK-MEL-5
  GI50: 6.53 µM (inactive)
SK-OV-3
  GI50: 18.7 µM (inactive)
SN12C
  GI50: 13.6 µM (inactive)
SNB-19
  GI50: 14.7 µM (inactive)
SNB-75
  GI50: 6.56 µM (inactive)
SNB-78
  GI50: 11.3 µM (inactive)
SR
  GI50: 19 µM (inactive)
SW-620
  GI50: 20.4 µM (inactive)
TK-10
  GI50: 14.2 µM (inactive)
U-251
  GI50: 16.4 µM (inactive)
UACC-257
  GI50: 14.2 µM (inactive)
UACC-62
  GI50: 6.64 µM (inactive)
UO-31
  GI50: 18.1 µM (inactive)

## CCN1N=CSC12C(=O)N(c1ccccc1)C(=O)N2c1ccccc1 (centres undefined)
786-0
  GI50: > 100 µM (inactive)
A498
  GI50: > 100 µM (inactive)
A549
  GI50: > 100 µM (inactive)
ACHN
  GI50: > 100 µM (inactive)
CAKI-1
  GI50: > 100 µM (inactive)
CCRF-CEM
  GI50: > 100 µM (inactive)
COLO 205
  GI50: > 100 µM (inactive)
DLD-1
  GI50: > 100 µM (inactive)
DMS-114
  GI50: 57.8 µM (inactive)
EKVX
  GI50: > 100 µM (inactive)
HCC 2998
  GI50: > 100 µM (inactive)
HCT-116
  GI50: > 100 µM (inactive)
HL-60
  GI50: 80.5 µM (inactive)
HOP-18
  GI50: > 100 µM (inactive)
HOP-62
  GI50: > 100 µM (inactive)
HOP-92
  GI50: > 100 µM (inactive)
HT-29
  GI50: > 100 µM (inactive)
IGROV-1
  GI50: > 100 µM (inactive)
K562
  GI50: > 100 µM (inactive)
KM-20L2
  GI50: > 100 µM (inactive)
KM12
  GI50: > 100 µM (inactive)
LOX IMVI
  GI50: > 100 µM (inactive)
LXFL 529
  GI50: > 100 µM (inactive)
M14
  GI50: > 100 µM (inactive)
MOLT-4
  GI50: > 100 µM (inactive)
Malme-3M
  GI50: > 100 µM (inactive)
NCI-H226
  GI50: > 100 µM (inactive)
NCI-H23
  GI50: > 100 µM (inactive)
NCI-H460
  GI50: > 100 µM (inactive)
NCI-H522
  GI50: > 100 µM (inactive)
OVCAR-3
  GI50: > 100 µM (inactive)
OVCAR-4
  GI50: > 100 µM (inactive)
OVCAR-8
  GI50: > 100 µM (inactive)
RXF 393
  GI50: > 100 µM (inactive)
RXF 631
  GI50: > 100 µM (inactive)
SF-268
  GI50: > 100 µM (inactive)
SF-295
  GI50: > 100 µM (inactive)
SF-539
  GI50: > 100 µM (inactive)
SK-MEL-28
  GI50: > 100 µM (inactive)
SK-MEL-5
  GI50: > 100 µM (inactive)
SK-OV-3
  GI50: > 100 µM (inactive)
SN12C
  GI50: > 100 µM (inactive)
SNB-19
  GI50: > 100 µM (inactive)
SNB-75
  GI50: > 100 µM (inactive)
SNB-78
  GI50: > 100 µM (inactive)
SR
  GI50: > 100 µM (inactive)
SW-620
  GI50: > 100 µM (inactive)
TK-10
  GI50: > 100 µM (inactive)
U-251
  GI50: > 100 µM (inactive)
UACC-257
  GI50: > 100 µM (inactive)
UACC-62
  GI50: > 100 µM (inactive)
UO-31
  GI50: > 100 µM (inactive)
XF498
  GI50: 32.7 µM (inactive)

## CN(C)C(=S)/N=c1\ss/c(=N/c2ccccc2)n1C
786-0
  GI50: 22.6 µM (inactive)
A498
  GI50: 28.9 µM (inactive)
A549
  GI50: 59.2 µM (inactive)
ACHN
  GI50: > 100 µM (inactive)
CAKI-1
  GI50: 36.2 µM (inactive)
CCRF-CEM
  GI50: > 100 µM (inactive)
DLD-1
  GI50: > 100 µM (inactive)
DMS-114
  GI50: 77.1 µM (inactive)
DMS-273
  GI50: > 100 µM (inactive)
EKVX
  GI50: > 100 µM (inactive)
HCC 2998
  GI50: > 100 µM (inactive)
HCT-116
  GI50: 38.5 µM (inactive)
HCT-15
  GI50: > 100 µM
HL-60
  GI50: > 100 µM (inactive)
HOP-18
  GI50: > 100 µM (inactive)
HOP-62
  GI50: 48.1 µM (inactive)
HOP-92
  GI50: 30.5 µM (inactive)
HT-29
  GI50: > 100 µM (inactive)
IGROV-1
  GI50: > 100 µM (inactive)
K562
  GI50: > 100 µM (inactive)
KM-20L2
  GI50: > 100 µM (inactive)
KM12
  GI50: > 100 µM (inactive)
LOX IMVI
  GI50: > 100 µM (inactive)
LXFL 529
  GI50: > 100 µM (inactive)
M14
  GI50: > 100 µM (inactive)
M19-MEL
  GI50: > 100 µM (inactive)
MOLT-4
  GI50: > 100 µM (inactive)
Malme-3M
  GI50: 40.5 µM (inactive)
NCI-H226
  GI50: > 100 µM (inactive)
NCI-H23
  GI50: > 100 µM (inactive)
NCI-H460
  GI50: > 100 µM (inactive)
OVCAR-4
  GI50: 50.6 µM (inactive)
OVCAR-5
  GI50: > 100 µM (inactive)
OVCAR-8
  GI50: 73.6 µM (inactive)
RPMI-8226
  GI50: > 100 µM (inactive)
RXF 393
  GI50: 28.2 µM (inactive)
RXF 631
  GI50: 44.6 µM (inactive)
SF-268
  GI50: 27.2 µM (inactive)
SF-295
  GI50: 75.9 µM (inactive)
SF-539
  GI50: 22.7 µM (inactive)
SK-MEL-28
  GI50: 64.3 µM (inactive)
SK-MEL-2
  GI50: > 100 µM (inactive)
SK-OV-3
  GI50: 32.4 µM (inactive)
SN12C
  GI50: > 100 µM (inactive)
SNB-19
  GI50: 58.3 µM (inactive)
SNB-75
  GI50: 16.2 µM (inactive)
SNB-78
  GI50: 32.4 µM (inactive)
SR
  GI50: > 100 µM (inactive)
SW-620
  GI50: > 100 µM (inactive)
TK-10
  GI50: > 100 µM (inactive)
U-251
  GI50: 46.7 µM (inactive)
UACC-257
  GI50: > 100 µM (inactive)
UACC-62
  GI50: > 100 µM (inactive)
UO-31
  GI50: > 100 µM (inactive)
